Our source for the IC50 values is ChEMBL document CHEMBL4316654, “Prenylated Acylphloroglucinols from Hypericum faberi” (J Nat Prod, 2019).

Format in all cases: functional, cell-based
One experiment relates to ECa-109 cell line. Kind of experiment: Cytotoxicity against human ECA109 cells incubated for 48 hrs by MTT assay. Particulars: ECa-109, 48 h.
The test system of the next experiment is PANC-1. Kind of experiment: Cytotoxicity against human PANC1 cells incubated for 48 hrs by MTT assay. To be noted: PANC-1, 48 h. In general terms: Tetrazolium dyes change colour on reduction, which living cells bring about.
Experiment [1] can be described thus: Cytotoxicity against human BIU87 cells incubated for 48 hrs by MTT assay. Particulars: BIU87, 48 h.

On to `CC(=O)O[C@H]1C(=O)[C@@]2(C)[C@H]([C@H](OC(=O)c3ccccc3)[C@]3(O)C[C@H](OC(=O)[C@H](O)[C@@H](NC(=O)c4ccccc4)c4ccccc4)C(C)=C1C3(C)C)[C@]1(OC(C)=O)CO[C@@H]1C[C@@H]2O` [PACLITAXEL], for which the results for the IC50 (in the experiment with ECa-109 cell line; with PANC-1; in experiment [1]) were 1.2 µM, 3.5 µM and 2.1 µM, respectively.
With `CC(C)=CCC/C(C)=C/Cc1c(O)c(C(=O)C(C)C)c2oc(-c3ccc(O)cc3)cc2c1O`, the 50% inhibitory concentration (IC50) (usually the point on the concentration scale where inhibition reaches its midpoint) in the experiment on PANC-1 was determined as 9 µM.
Same read-out and setting: for `CCC(C)C(=O)c1c(O)c(C/C=C(\C)CCC=C(C)C)c(O)c2cc(-c3ccccc3)oc12` (stereo not given) the value was 6.2 µM.
